# Source: paper PMC8187479, “Sugar phosphate activation of the stress sensor eIF2B” (Nature Communications, 2021)
# Residue numbers refer to the chain shown, from its start. Values joined by “and” are separate entries in the source; they are usually repeats but may differ in a detail not shown here. Equal values may be shown once.
# Columns and labels:
# Format in all cases: binding
# eIF2Bα^N208Y = biological target: T1, eIF2Bα^N208Y (Homo sapiens, UniProt Q14232, N208Y); test: Isothermal titration calorimetry, eIF2Bα N208Y; conditions: ITC
# T1 construct: made in house; host or cells: E. coli BL21(DE3)
# T1 sequence (Q14232 1-305 N208Y): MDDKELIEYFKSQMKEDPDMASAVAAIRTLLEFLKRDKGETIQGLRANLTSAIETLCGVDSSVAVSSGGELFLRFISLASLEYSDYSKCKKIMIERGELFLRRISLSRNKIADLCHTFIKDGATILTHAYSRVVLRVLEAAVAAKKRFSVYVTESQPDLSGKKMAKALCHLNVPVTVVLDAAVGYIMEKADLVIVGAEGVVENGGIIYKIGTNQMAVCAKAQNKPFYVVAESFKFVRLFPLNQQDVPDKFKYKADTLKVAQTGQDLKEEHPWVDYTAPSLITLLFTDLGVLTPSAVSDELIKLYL
# Procedure: (§1) Interactions between recombinant protein and sugar phosphates were conducted with a MicroCal PEAQ-ITC (Malvern Panalytical Inc.). Experiments were performed in 25 mM HEPES, 150 mM NaCl, pH 7.5 at 20 °C. The sugar phosphate concentration in the syringe was 1 mM or 1.5 mM, and ~3.5 μL aliquots were injected into cells containing 300 μL eIF2Bα or eIF2B(βδγε) at a concentration of 20–30 μM. The final titration curves were fitted using MicroCal ITC data analysis software, assuming a single binding site per monomer.
# eIF2Bα [1] = biological target: T2, eIF2Bα (Homo sapiens, UniProt Q14232); test: Isothermal titration calorimetry, wild-type eIF2Bα
# T2 construct: made in house; host or cells: E. coli BL21(DE3)
# T2 sequence (Q14232 1-305): T1 sequence (Q14232 1-305 N208Y) with Y208N
# Procedure: as §1
# eIF2Bα [2] = biological target: T2, eIF2Bα; test: Differential scanning fluorimetry (Protein Thermal Shift), eIF2Bα Tm; conditions: individual replicates Rep 1-4, control without metabolite about 64.1
# Procedure: The effect of metabolite binding on eIF2Bα Tm was assessed using the Protein Thermal Shift assay (Thermo Fisher), following manufacturer’s instructions. Briefly, reaction conditions for each 20 μL reaction were: 1.1 μg (1.5 μM) of eIF2Bα, 5 μl Thermal Shift buffer, 1X Thermal Shift dye, and metabolites in dose response. Reactions were run in 384-well format on a QuantStudio 6 Flex instrument (Thermo Fisher). The resulting melt curves were analyzed using Protein Thermal Shift Software, and eIF2Bα Tms for each condition were calculated by fitting to the Boltzmann function.
compound,measurement,setting,value
"O=C[C@@H](O)[C@@H](O)[C@H](O)[C@H](O)COP(=O)(O)O [M6P, mannose-6-phosphate]",interaction with eIF2Bα N208Y,eIF2Bα^N208Y,does not interact
same,Kd,"eIF2Bα [1]; ITC, wild-type eIF2Bα",282 ± 35 µM
same,"ITC binding isotherm, heat per mole of injectant",eIF2Bα [1]; molar ratio 0.225339,-1.246 kcal/mol
same,"ITC binding isotherm, heat per mole of injectant",eIF2Bα [1]; molar ratio 0.415168,-1.08 kcal/mol
same,"ITC binding isotherm, heat per mole of injectant",eIF2Bα [1]; molar ratio 0.606855,-1.012 kcal/mol
same,"ITC binding isotherm, heat per mole of injectant",eIF2Bα [1]; molar ratio 0.8004,-0.9251 kcal/mol
same,"ITC binding isotherm, heat per mole of injectant",eIF2Bα [1]; molar ratio 0.995804,-0.7798 kcal/mol
same,"ITC binding isotherm, heat per mole of injectant",eIF2Bα [1]; molar ratio 1.19307,-0.7719 kcal/mol
same,"ITC binding isotherm, heat per mole of injectant",eIF2Bα [1]; molar ratio 1.39219,-0.7333 kcal/mol
same,"ITC binding isotherm, heat per mole of injectant",eIF2Bα [1]; molar ratio 1.59317,-0.643 kcal/mol
same,"ITC binding isotherm, heat per mole of injectant",eIF2Bα [1]; molar ratio 1.796,-0.5884 kcal/mol
same,"ITC binding isotherm, heat per mole of injectant",eIF2Bα [1]; molar ratio 2.0007,-0.5938 kcal/mol
same,"ITC binding isotherm, heat per mole of injectant",eIF2Bα [1]; molar ratio 2.20725,-0.6099 kcal/mol
same,"ITC binding isotherm, heat per mole of injectant",eIF2Bα [1]; molar ratio 2.41567,-0.5269 kcal/mol
same,"ITC binding isotherm, heat per mole of injectant",eIF2Bα [1]; molar ratio 2.62594,-0.5106 kcal/mol
same,"ITC binding isotherm, heat per mole of injectant",eIF2Bα [1]; molar ratio 2.83807,-0.4795 kcal/mol
same,"ITC binding isotherm, heat per mole of injectant",eIF2Bα [1]; molar ratio 3.05206,-0.426 kcal/mol
same,"ITC binding isotherm, heat per mole of injectant",eIF2Bα [1]; molar ratio 3.2679,-0.4467 kcal/mol
same,"ITC binding isotherm, heat per mole of injectant",eIF2Bα [1]; molar ratio 3.48561,-0.4459 kcal/mol
same,"ITC binding isotherm, heat per mole of injectant",eIF2Bα [1]; molar ratio 3.70517,-0.1953 kcal/mol
same,Tm of eIF2Bα,eIF2Bα [2]; 0.33 mM metabolite,64.7587 °C and 64.5257 °C and 64.0751 °C and 63.7209 °C
same,Tm of eIF2Bα,eIF2Bα [2]; 1 mM metabolite,66.0911 °C and 65.9704 °C and 65.2776 °C and 64.2935 °C
same,Tm of eIF2Bα,eIF2Bα [2]; 5 mM metabolite,66.7846 °C and 66.6099 °C and 66.516 °C and 65.7833 °C
